Test results reported in ChEMBL document CHEMBL1201862, “PubChem BioAssay data set” (2004).
The source made the active and inactive calls.

Experiments:
Candida albicans [1] = test: antifungal activity against resistant Candida strain – CaCi-8, fluconazole, Alamar Blue, dry powder, dose response (AID 488807); type: functional, organism-based
Candida albicans [2] = test: Candida growth effect without fluconazole – C. albicans CaCi-2, dry powder, counter-screen for antifungal drug resistance project, dose response (AID 488802); type: functional, organism-based
NIH3T3 = test: mammalian cell viability counter-check – Alamar Blue, fluconazole, dry powder, cytotoxicity control for antifungal drug resistance project, dose response (AID 488809); type: functional, cell-based; conditions: Mus musculus
[3] = Vero cell cytotoxicity, dose response, cytotoxicity control for M. tuberculosis growth inhibitor project, Vero cells, purified and synthesized compounds, set 5 (AID 504909); type: functional; conditions: Mycobacterium tuberculosis
[4] = A Cell Based Secondary Assay to Explore Cytotoxicity in THP-1 Cells of Compounds that Modulate Mycobacterium tuberculosis in Media Containing Glycerol versus Media without Glycerol (2).; type: functional
[5] = Vero cell cytotoxicity, cytotoxicity control for M. tuberculosis inhibitor project, purified and synthesized samples, set 3 (AID 504684); type: functional
[6] = THP-1 cell cytotoxicity, cytotoxicity control, set 4 (AID 504911); type: functional; conditions: Mycobacterium tuberculosis
[7] = THP-1 cell cytotoxicity, dose response, cytotoxicity control, set 3 (AID 504852); type: functional; conditions: Mycobacterium tuberculosis
[8] = Vero cell cytotoxicity, dose response, cytotoxicity control for M. tuberculosis growth inhibitor project, Vero cells, purified and synthesized compounds, set 4 (AID 504854); type: functional; conditions: Mycobacterium tuberculosis
[9] = molecular target: Cyclin-dependent kinase 8 (Homo sapiens, UniProt P49336); test: Navigating the Kinome. Panel member name: CDK8; type: functional
Sequence of Cyclin-dependent kinase 8 (P49336 whole entry): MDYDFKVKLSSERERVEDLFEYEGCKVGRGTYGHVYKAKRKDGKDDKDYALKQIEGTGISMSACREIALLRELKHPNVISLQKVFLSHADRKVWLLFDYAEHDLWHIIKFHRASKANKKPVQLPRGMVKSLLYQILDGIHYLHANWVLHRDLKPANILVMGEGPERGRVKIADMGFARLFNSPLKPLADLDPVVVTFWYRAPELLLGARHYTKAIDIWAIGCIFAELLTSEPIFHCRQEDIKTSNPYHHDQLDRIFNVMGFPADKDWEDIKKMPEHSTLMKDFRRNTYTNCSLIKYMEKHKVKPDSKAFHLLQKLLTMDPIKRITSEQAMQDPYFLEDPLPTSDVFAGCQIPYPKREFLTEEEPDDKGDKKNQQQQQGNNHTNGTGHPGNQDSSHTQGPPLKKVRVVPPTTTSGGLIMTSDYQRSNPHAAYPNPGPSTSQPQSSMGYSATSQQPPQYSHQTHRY

[10] = molecular target: Cyclin-dependent kinase 9 (Homo sapiens, UniProt P50750); type: functional;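 also: value from the CDK9 entry of a kinome-spanning kinase panel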
Sequence of Cyclin-dependent kinase 9 (P50750 whole entry): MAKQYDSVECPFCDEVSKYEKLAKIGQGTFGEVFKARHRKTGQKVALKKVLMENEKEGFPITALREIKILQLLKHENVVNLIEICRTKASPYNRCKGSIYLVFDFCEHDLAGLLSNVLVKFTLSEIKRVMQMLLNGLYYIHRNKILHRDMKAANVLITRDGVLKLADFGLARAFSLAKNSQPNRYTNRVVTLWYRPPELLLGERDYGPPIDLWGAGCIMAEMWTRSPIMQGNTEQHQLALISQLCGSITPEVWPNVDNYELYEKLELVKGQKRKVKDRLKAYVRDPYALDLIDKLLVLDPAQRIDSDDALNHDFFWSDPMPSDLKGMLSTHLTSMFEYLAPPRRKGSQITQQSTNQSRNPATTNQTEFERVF

Cytochrome P450 2C9 = Cytochrome P450 2C9 (Homo sapiens, UniProt P11712)
Sequence of Cytochrome P450 2C9 (P11712 whole entry): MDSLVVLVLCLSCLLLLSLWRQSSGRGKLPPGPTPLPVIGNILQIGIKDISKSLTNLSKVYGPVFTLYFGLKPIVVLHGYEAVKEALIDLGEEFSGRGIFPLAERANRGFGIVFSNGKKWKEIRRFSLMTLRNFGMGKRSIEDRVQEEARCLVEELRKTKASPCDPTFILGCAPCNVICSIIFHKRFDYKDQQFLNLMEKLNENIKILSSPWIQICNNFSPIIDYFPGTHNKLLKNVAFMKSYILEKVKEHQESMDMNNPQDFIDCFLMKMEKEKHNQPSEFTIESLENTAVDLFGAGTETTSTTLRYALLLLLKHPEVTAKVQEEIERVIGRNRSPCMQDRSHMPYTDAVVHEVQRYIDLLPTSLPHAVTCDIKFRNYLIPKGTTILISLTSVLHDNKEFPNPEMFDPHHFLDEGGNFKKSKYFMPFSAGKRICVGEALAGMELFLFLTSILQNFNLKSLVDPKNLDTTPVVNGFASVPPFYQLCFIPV

Oc1c2nc3ccc(F)cc3c-2nc2n1CCS2
AC50 (Candida albicans [1]): 4.72 µM (active)
AC50 (Candida albicans [2]): 37.3 µM (active)
AC50 (NIH3T3): 192 µM (active)

CN(C(=O)CSc1nc2ccccc2c(=O)[nH]1)C1CCCCC1
CC50 [3]: > 100 µM (active)
CC50 [4]: > 100 µM (active)
CC50 [5]: > 100 µM (active)
CC50 [6]: > 97.4 µM (active)
CC50 [7]: > 100 µM (active)
CC50 [8]: > 100 µM (active)

COc1ccc(-c2cc(=O)c3c(O)cc(O)cc3o2)cc1 [ACACETIN]
Ki [9]: 0.631 µM (active)
Ki [10]: 1.26 µM (active)
AC50 (Cytochrome P450 2C9): 1.26 µM (inconclusive)
